{
  "source": "patent US10738054B2",
  "about": "“Synergistic compositions comprising (R)-dimiracetam (1) and (S)-dimiracetam (2) in a non-racemic ratio” (Metys Pharmaceuticals AG, priority 2017, dated 2020)",
  "key": {"[1]": {"test_system": "NMDA plus glycine-evoked [3H]-D-aspartic acid release from rat spinal synaptosomes", "assay": "Inhibition of NMDA+glycine-induced glutamate ([3H]-D-Asp) release from rat spinal synaptosomes (Example 2)", "type": "biochemical", "settings": "for IC50: rat spinal synaptosomes, 10 μM NMDA plus 1 μM glycine, read-out: estimated IC50 for inhibition of NMDA plus glycine-evoked [3H]-D-aspartic acid release; for Percent inhibition of NMDA + glycine-induced glutamate release from rat spinal synaptosomes: mean ± S.E.M. of 3 to 6 experiments", "description": "Rat spinal synaptosomes, free from glial contaminants, were prepared according to the method of Paluzzi S. et al., 2007, a modification of the method of Nakamura et al., 1993, as follows.\nSprague-Dawley rats aged between 90 to 130 days were used. Animals were housed at constant temperature (22±1° C.) and relative humidity (50%) under a regular light-dark schedule (lights 7.00 am-7.00 pm). Food and water were freely available.\nRats were sacrificed by decapitation and the whole spinal cord was rapidly removed and maintained at 4° C. Rat spinal cord was homogenized (90 rpm; 24 up-down strokes in 2 min) in 10 volumes (1 g tissue in 10 ml) of ice cold 0.32 M sucrose, buffered at pH 7.4 using a glass-teflon tissue grinder (clearance 0.25 mm). The homogenate was centrifuged (5 min, 1000 g at 4° C.) to remove nuclei and debris, and the supernatant was gently stratified at 0-4° C. on a discontinuous Percoll® (Sigma Aldrich, St Louis, Mo., USA) gradient (2, 6, 10 and 20% v/v in Tris-buffered sucrose) and centrifuged at 33,500 g for 5 min. The layer between 10 and 20% Percoll (i.e. the synaptosomal fraction) was collected and washed by centrifugation in physiological medium having the following composition (mM): NaCl, 140; KCl, 3; MgSO4 1.2; NaH2PO4, 1.2; NaHCO3 5; CaCl2 1.2; HEPES 10; glucose, 10; pH 7.4. Protein content was measured according to Bradford M M, 1976 using bovine serum albumin as a standard.\nSynaptosomes (about 70 μg protein) were incubated at 37° C. for 15 min in 2.5 mL of 0.05 μM [^3H]-D-aspartate ([^3H]-D-Asp; Perkin Elmer Italia, Monza, Milano, Italy). Then, the suspension was diluted to 122.5 mL with physiological medium maintained at 37° C. and 5 mL aliquots of the synaptosomal suspension were layered on microporous filters placed at the bottom of a set of 24 parallel 25 mL superfusion chambers maintained at 37° C. (Superfusion system, Ugo Basile, Comerio, Varese, Italy). Superfusion was then started with physiological medium at a rate of 0.5 mL/min, and was continued for 46 min. Starting at t=37 min, nine consecutive 1-min filtrate samples were collected. NMDA (10 μM) and glycine (1 μM) were introduced at the end of the first sample collected and maintained until the end of the experiment.\nThe radioactivity contained in each filtrate sample was measured by scintillographic methods, using a Ultima Gold scintillation fluid (Perkin-Elmer Milan, Italy). Each whole 0.5 mL sample was counted for radioactivity by adding 3 mL of scintillation fluid.\nTritium content measured in each sample was expressed as fractional percent (i.e. percent content of each sample with respect to total [^3H] content at the onset of the respective collection period). Drug effects were evaluated by calculating the ratio between the effluxes in the seventh fraction collected (in which the maximum effect of NMDA was reached) and that of the first fraction (basal release, prior to application of NMDA+glycine). This ratio was compared to the same seventh- and first-fraction ratio obtained under control conditions.\nThe possible effects of racemic and non-racemic dimiracetam mixtures on NMDA plus glycine-induced neurotransmitter release from rat spinal cord synaptosomes were assessed."}, "[2]": {"test_system": "rats pre-treated with 2′,3′-dideoxycytidine (ddC, zalcitabine)", "settings": "cited from earlier work"}, "[3]": {"assay": "Rat plasma concentration-time profiles after oral administration", "type": "in vivo", "settings": "for rat plasma concentration-time profiles after oral administration: 75 mg/kg p.o. enantiomer vs 150 mg/kg p.o. racemate (FIG. 4A, 4B); for interconversion of enantiomers in vivo: rat, oral administration", "description": "FIG. 4A: Comparison of the plasma concentration-time profiles of the (R)-enantiomer after oral administration of (R)-dimiracetam (75 mg/kg) and after oral administration of racemic dimiracetam (150 mg/kg)\nFIG. 4B: Comparison of the plasma concentration-time profiles of the (S)-enantiomer after oral administration of (S)-dimiracetam (2) (75 mg/kg) and after oral administration of racemic dimiracetam (150 mg/kg)."}, "[4]": {"test_system": "rats with oxaliplatin-induced mechanical hyperalgesia", "assay": "Paw pressure test (Randall & Selitto) in oxaliplatin model", "type": "in vivo, rat", "settings": "oxaliplatin 2.4 mg/kg i.p.", "description": "Paw mechanical sensitivity was determined using a Randall & Selitto apparatus (Randall and Selitto, 1957) exerting a force that increases at constant rate (32 g/s). The stimulus causing paw withdrawal was evaluated before and at different times after treatment. Results represent the mean of mechanical thresholds for paw withdrawal expressed as grams. To avoid possible damage to the rat paw the maximum applied force was set at 240 g. In the single administration protocol, paw pressure tests were performed before (pre-dose) and at regular intervals after treatment.\nPeripheral sensory neuropathy was induced in adult rats, by administration of oxaliplatin (Tocris) at 2.4 mg/kg i.p. in saline once daily for 5 consecutive days every week for three weeks (cumulative dose 36 mg/kg) according to Cavaletti et al., 2001. Starting from day 21 after the first oxaliplatin administration, the effect of repeated oral administration of racemic dimiracetam or the preferred inventive composition with an enantiomeric excess of (R)-dimiracetam of 50% corresponding to a 3:1 (R):(S) ratio of the enantiomers on oxaliplatin-induced mechanical hyperalgesia was assessed.\nAfter repeated oral administration of either racemic dimiracetam or the preferred inventive composition with an enantiomeric excess of (R)-dimiracetam of 50%, oxaliplatin-induced mechanical hyperalgesia was measured. Pain threshold was assessed by a Randall & Selitto analgesymeter before the morning administration. […] Development of tolerance was not observed.\n(§1) After repeated oral administration of either racemic dimiracetam or the preferred inventive composition with an enantiomeric excess of (R)-dimiracetam of 50%, oxaliplatin-induced mechanical hyperalgesia was measured. Pain threshold was assessed by a Randall & Selitto analgesymeter (Leighton et al. Br. J. Pharmacol. 93:553-560, 1988) before the morning administration. In the morning of day 28, also mechanical allodynia (Sakurai et al. Pain 147:165-74, 2009) and cold sensitivity were assessed, using the von Frey and cold plate tests (Di Cesare Mannelli et al. Exp Neurol 261:22-33, 2014), respectively. […] Development of tolerance was not observed.\nPaw mechanical sensitivity was determined using a Randall & Selitto apparatus exerting a force that increases at constant rate (32 g/s). The stimulus at which rats withdrew the paw was evaluated before and at different times after treatment. Results represent the mean of mechanical thresholds expressed as grams. To avoid any possible damage to the animal paw the maximum applied force was fixed at 240 g (Leighton et al. Br. J. Pharmacol. 93:553-560, 1988)."}, "[5]": {"test_system": "rats with oxaliplatin-induced cold sensitivity", "assay": "Cold plate test in oxaliplatin model", "type": "in vivo, rat", "settings": "oxaliplatin 2.4 mg/kg i.p.", "description": "as §1\nThe animals were placed in a stainless box (12 cm×20 cm×10 cm) with a cold plate as floor. The temperature of the cold plate was kept constant at 4° C.±1° C. Pain-related behaviors (i.e. lifting and licking of the hind paw) were observed and the time (s) of the first sign was recorded. The cut-off time of the latency of paw lifting or licking was set at 60 s (Di Cesare Mannelli et al. Exp Neurol 261:22-33, 2014)."}, "[6]": {"test_system": "rats with oxaliplatin-induced mechanical allodynia", "assay": "Von Frey test in oxaliplatin model", "type": "in vivo, rat", "settings": "oxaliplatin 2.4 mg/kg i.p.", "description": "as §1\nThe animals were placed in 20 cm×20 cm Plexiglas boxes equipped with a metallic mesh floor, 20 cm above the bench. Animals were allowed to habituate themselves to their environment for 15 min before the test. An electronic Von Frey hair unit (Ugo Basile, Varese, Italy) was used: the withdrawal threshold was evaluated by applying forces ranging from 0 to 50 g with a 0.2 g accuracy. […] The paw sensitivity threshold was defined as the minimum force required to elicit a robust and immediate withdrawal reflex of the paw. Voluntary movements associated with locomotion were not considered as a withdrawal response. Stimuli were applied to each posterior paw at 5 s intervals. Measurements were repeated 5 times and the final value was obtained by averaging the 5 measurements (Sakurai et al. Pain 147:165-74, 2009)."}, "[7]": {"test_system": "NMDA+glycine-induced [3H]-D-aspartate release in rat spinal cord synaptosomes", "assay": "In vitro inhibition of pre-loaded [3H]-D-aspartate release induced by NMDA+glycine in rat spinal cord synaptosomes (Example 5)", "type": "biochemical", "settings": "tested at 10 nM", "description": "These experiments were performed following the previously published methodology (Fariello et al. Neuropharmacology. 2014, (81), 85-94) and the results are shown in FIG. 5."}, "[8]": {"test_system": "NMDA-plus-glycine-triggered [3H]-D-aspartate release in synaptosomal preparations of the spinal cord", "settings": "spinal cord synaptosomes; read-out: IC50 for inhibiting NMDA-plus-glycine-triggered [3H]-D-aspartate release; cited from earlier work"}, "[9]": {"test_system": "NMDA-plus-glycine-triggered release of [3H]-D-aspartate in synaptosomal preparations of the hippocampus", "settings": "hippocampus synaptosomes; read-out: IC50 for inhibiting NMDA-plus-glycine-triggered release of [3H]-D-aspartate; cited from earlier work"}},
  "note": "Values joined by “and” are separate entries in the source; they are usually repeats but may differ in a detail not shown here. Identical values can stand only once.",
  "data": [
    {"smiles": "O=C1CN2C(=O)CC[C@H]2N1", "note": "[(S)-dimiracetam, (S)-3,6,7,7a-tetrahydro-1H-pyrrolo[1,5-a]imidazole-2,5-dione]", "values": [
      {"measurement": "IC50", "setting": "[1]", "value": 418, "unit": "nM"},
      {"measurement": "efficacy response after a single oral dose", "setting": "[2]", "value": "smaller response than the corresponding dose of the (R)-enantiomer"},
      {"measurement": "rat plasma concentration-time profiles after oral administration", "setting": "[3]", "value": "identical"},
      {"measurement": "interconversion of enantiomers in vivo", "setting": "[3]", "value": "do not to interconvert in vivo"}
    ]},
    {"smiles": "O=C1CN2C(=O)CC[C@@H]2N1", "note": "[(R)-dimiracetam, (R)-3,6,7,7a-tetrahydro-1H-pyrrolo[1,5-a]imidazole-2,5-dione]", "values": [
      {"measurement": "IC50", "setting": "[1]", "value": 123, "unit": "nM"},
      {"measurement": "efficacy response after a single oral dose", "setting": "[2]", "value": "partial efficacy response"},
      {"measurement": "rat plasma concentration-time profiles after oral administration", "setting": "[3]", "value": "identical"},
      {"measurement": "interconversion of enantiomers in vivo", "setting": "[3]", "value": "do not to interconvert in vivo"}
    ]},
    {"smiles": "O=C1CN2C(=O)CCC2N1", "note": "(racemic) [racemic dimiracetam, (RS)-3,6,7,7a-tetrahydro-1H-pyrrolo[1,5-a]imidazole-2,5-dione]", "values": [
      {"measurement": "Randall & Selitto, paw pressure, Day 28", "setting": "[4]; 15 mg/kg b.i.d.", "value": "48.7 ± 2.5", "unit": "g"},
      {"measurement": "Randall & Selitto, paw pressure, Pre-test", "setting": "[4]; 15 mg/kg b.i.d.", "value": "68.1 ± 1.2", "unit": "g"},
      {"measurement": "Randall & Selitto, paw pressure, Day 28", "setting": "[4]; 50 mg/kg b.i.d.", "value": "55.2 ± 1.0", "unit": "g"},
      {"measurement": "Randall & Selitto, paw pressure, Pre-test", "setting": "[4]; 50 mg/kg b.i.d.", "value": "67.1 ± 0.8", "unit": "g"},
      {"measurement": "Cold plate, licking latency, Day 28", "setting": "[5]; 15 mg/kg b.i.d.", "value": "14.8 ± 1.5", "unit": "s"},
      {"measurement": "Cold plate, licking latency, Pre-test", "setting": "[5]; 15 mg/kg b.i.d.", "value": "21.5 ± 1.0", "unit": "s"},
      {"measurement": "Cold plate, licking latency, Day 28", "setting": "[5]; 50 mg/kg b.i.d.", "value": "15.4 ± 1.0", "unit": "s"},
      {"measurement": "Cold plate, licking latency, Pre-test", "setting": "[5]; 50 mg/kg b.i.d.", "value": "22.0 ± 0.8", "unit": "s"},
      {"measurement": "Von Frey paw withdrawal, Day 28", "setting": "[6]; 15 mg/kg b.i.d.", "value": "16.0 ± 1.5", "unit": "g"},
      {"measurement": "Von Frey paw withdrawal, Pre-test", "setting": "[6]; 15 mg/kg b.i.d.", "value": "21.4 ± 1.0", "unit": "g"},
      {"measurement": "Von Frey paw withdrawal, Day 28", "setting": "[6]; 50 mg/kg b.i.d.", "value": "18.5 ± 2.3", "unit": "g"},
      {"measurement": "Von Frey paw withdrawal, Pre-test", "setting": "[6]; 50 mg/kg b.i.d.", "value": "21.4 ± 0.5", "unit": "g"},
      {"measurement": "Percent inhibition of NMDA + glycine-induced glutamate release from rat spinal synaptosomes", "setting": "[1]; 0.1 nM", "value": "9 ± 13", "unit": "%"},
      {"measurement": "Percent inhibition of NMDA + glycine-induced glutamate release from rat spinal synaptosomes", "setting": "[1]; 1 nM", "value": "29 ± 3", "unit": "%"},
      {"measurement": "Percent inhibition of NMDA + glycine-induced glutamate release from rat spinal synaptosomes", "setting": "[1]; 10 nM", "value": "35 ± 4", "unit": "%"},
      {"measurement": "inhibition of NMDA plus glycine-evoked [3H]-D-aspartic acid release", "setting": "[1]; at a concentration of 10 nM", "value": 36, "unit": "%"},
      {"measurement": "IC50", "setting": "[1]", "value": "14.6 nM and 15 nM"},
      {"measurement": "efficacy response after a single oral dose", "setting": "[2]", "value": "superior response compared to either (R)- or (S)-dimiracetam alone"},
      {"measurement": "% inhibition (mean)", "setting": "[7]", "value": 35.4, "unit": "%"},
      {"measurement": "IC50", "setting": "[8]", "value": "~20", "unit": "nM"},
      {"measurement": "IC50", "setting": "[9]", "value": "~3000", "unit": "nM"}
    ]}
  ]
}
